Data published in patent US20220117938A1, “COMBINATON THERAPY WITH A DON PRODRUG AND AN IMMUNE CHECKPOINT INHIBITOR” (DRACEN PHARMACEUTICALS, INC., priority 2019, published 2022).

System: CT26.WT tumors
Test: Anti-tumor efficacy of Compound 1 with and without anti-PD-1 in the CT26.WT murine colorectal model (Example 2B)
Assay type: in vivo, Mus musculus
Conditions: for Tumor volume (mm^3), Mean ± SEM: n = 8; for ILS (%) / MST: endpoint tumor volume 2000 mm^3; for RTV at day 15 / T/C (%) / TGI (%) / Tumor Size (mm^3) at day 15, Mean ± SEM: day 15
Description: Female BALB/c mice were inoculated subcutaneously at right flank with CT26.WT cells for tumor development. Five days after tumor inoculation, 48 mice with tumor size ranging from 39-61 mm^3 (average tumor size 49 mm^3) were selected and assigned into 6 groups using stratified randomization with 8 mice per group based upon their tumor volumes. The treatments were started from the day of randomization (defined as D0), Group 1 was treated with Vehicle (Tween 80:Ethanol:Saline—5:5:90 v/v/v), s.c. q.d.×14, Group 2 was treated with anti-PD-1 10 mg/kg i.p. q4d×4, Group 3 was treated with Compound 1 3 mg/kg s.c. q.d.×5D followed by 1 mg/kg s.c. q.d.×9D, Group 4 was treated with Compound 1 3 mg/kg s.c. q.d.×5D followed by 1 mg/kg s.c. q.d.×9D+anti-PD-1 10 mg/kg i.p. q4d×4, Group 5 was treated with Compound 1 1 mg/kg s.c. q.d.×14D and Group 6 was treated with Compound 1 1 mg/kg s.c. q.d.×14D+anti-PD-1 10 mg/kg i.p. q4d×4. The tumor sizes were measured three times per week during the treatment. The entire study was terminated on D64 after start of the treatment.
Animal Species: Mus musculus; Strain: BALB/c; Age: 6-8 weeks; Sex: female; Body weight (at treatment start): 20-24 g.
The CT26.WT tumor cells (ATCC, Cat #CRL-2638™) were maintained in vitro as a monolayer culture in RPMI 1640 medium supplemented with 10% heat inactivated fetal bovine serum, 100 U/mL penicillin and 100 μg/mL streptomycin, and L-glutamine (2 mM) at 37° C. in an atmosphere of 5% CO2 in air. The tumor cells were routinely subcultured twice weekly by trypsin-EDTA treatment. The cells growing to a confluency around 70%-80% were harvested and counted for tumor inoculation. The cultured CT26.WT cells were harvested, re-suspended in base medium with viability>90%. Each mouse was inoculated subcutaneously at the right flank with 3×10^5 in 0.05 ml base medium for tumor development.
The treatments were started on day 5 after tumor inoculation when the tumor size reached 39-61 mm^3 (average tumor size 49 mm^3). Each group consisted of 8 tumor bearing mice. The testing article was administrated at the dosing volume indicated to the mice according to the predetermined regimen as shown Table 2B-1. Testing article formulations were prepared according to standard procedures. Details regarding tumor measurements and endpoints, and statistical analysis are provided in EXAMPLE 3.
Tumor sizes were measured three times a week in two dimensions using a caliper, and the volume expressed in mm^3 using the formula: V=0.5 a×b^2 where a and b are the long and short diameters of the tumor, respectively. The tumor sizes were then used for the calculations of both tumor growth inhibition (TGI) and T/C values.
TGI is calculated for each group using the formula: […]
TVTreatment_DayN is the average tumor volume of a treatment group on a given day, TVTreatment_Day0 is the average tumor volume of the treatment group on the first day of treatment, TVVehicle_DayN is the average tumor volume of the vehicle control group on a given day, and TVVehicle_Day0 is the average tumor volume of the vehicle group on the first day of treatment.
The T/C value (in percent) is an indication of antitumor effectiveness, T/C (%)=RTVTreatment/RTVControl×100% (RTVTreatment: the mean RTV of the treatment group; RTVControl: the mean RTV of the vehicle treated group). RTV (relative tumor volume)=TVDayN/TVDay0. TVDayN and TVDay0 is the tumor volume on day N and Day 0 respectively. T/C (%)≤42% is considered as significant antitumor activity and <10% is considered as highly significant antitumor activity by the National Cancer Institute criteria.
Animal survival curve: When an individual animal reached to the termination endpoint (TV>2000 mm^3), the mouse was euthanized. The time from treatment initiation to the termination was deemed as its survival time. Survival curve was plotted by Kaplan-Meier method. Median survival time (MST) was calculated for each group. Increase of life span (ILS) was calculated according to the following formula: […]

SMILES: CC(=O)N[C@@H](Cc1c[nH]c2ccccc12)C(=O)N[C@@H](CCC(=O)C=[N+]=[N-])C(=O)OC(C)C [Compound 1, Isopropyl (S)-2-((S)-2-acetamido-3-(1H-indol-3-yl)propanamido)-6-diazo-5-oxohexanoate]
- Tumor volume (mm^3), Mean ± SEM (1 mg/kg qdx14 s.c., Day 0): 49 ± 2 mm^3
- Tumor volume (mm^3), Mean ± SEM (1 mg/kg qdx14 s.c., Day 3): 68 ± 6 mm^3
- Tumor volume (mm^3), Mean ± SEM (1 mg/kg qdx14 s.c., Day 6): 92 ± 8 mm^3
- Tumor volume (mm^3), Mean ± SEM (1 mg/kg qdx14 s.c., Day 8): 104 ± 9 mm^3
- Tumor volume (mm^3), Mean ± SEM (1 mg/kg qdx14 s.c., Day 10): 112 ± 9 mm^3
- Tumor volume (mm^3), Mean ± SEM (1 mg/kg qdx14 s.c., Day 13): 156 ± 18 mm^3
- Tumor volume (mm^3), Mean ± SEM (1 mg/kg qdx14 s.c., Day 15): 186 ± 21 mm^3
- Tumor volume (mm^3), Mean ± SEM (3 mg/kg qdx5 then 1 mg/kg qdx9 s.c., Day 0): 49 ± 2 mm^3
- Tumor volume (mm^3), Mean ± SEM (3 mg/kg qdx5 then 1 mg/kg qdx9 s.c., Day 3): 54 ± 2 mm^3
- Tumor volume (mm^3), Mean ± SEM (3 mg/kg qdx5 then 1 mg/kg qdx9 s.c., Day 6): 65 ± 3 mm^3
- Tumor volume (mm^3), Mean ± SEM (3 mg/kg qdx5 then 1 mg/kg qdx9 s.c., Day 8): 139 ± 14 mm^3
- Tumor volume (mm^3), Mean ± SEM (3 mg/kg qdx5 then 1 mg/kg qdx9 s.c., Day 10): 180 ± 20 mm^3
- Tumor volume (mm^3), Mean ± SEM (3 mg/kg qdx5 then 1 mg/kg qdx9 s.c., Day 13): 224 ± 25 mm^3
- Tumor volume (mm^3), Mean ± SEM (3 mg/kg qdx5 then 1 mg/kg qdx9 s.c., Day 15): 333 ± 41 mm^3
- ILS (%) (Compound 1 1 mg/kg): 40%
- MST (Compound 1 1 mg/kg): 28 days
- ILS (%) (Compound 1 3/1 mg/kg): 35%
- MST (Compound 1 3/1 mg/kg): 27 days
- RTV at day 15 (Cpd. 1 1 mg/kg): 3.84 ± 0.43
- T/C (%) (Cpd. 1 1 mg/kg): 15.23%
- TGI (%) (Cpd. 1 1 mg/kg): 188.18%
- Tumor Size (mm^3) at day 15, Mean ± SEM (Cpd. 1 1 mg/kg): 186 ± 21 mm^3
- RTV at day 15 (Cpd. 1 3/1 mg/kg): 4.79 ± 0.69
- T/C (%) (Cpd. 1 3/1 mg/kg): 19.00%
- TGI (%) (Cpd. 1 3/1 mg/kg): 84.90%
- Tumor Size (mm^3) at day 15, Mean ± SEM (Cpd. 1 3/1 mg/kg): 224 ± 25 mm^3
